Data reported in the supplement of paper PMC13380429.

Columns and labels:
[1] = tested on: A549-ACE2 infected with SARS-CoV-2; test: cell count relative to DMSO; higher = less toxic; conditions: 24 h
[2] = tested on: Caco-2; test: cell viability relative to DMSO; higher = less toxic; conditions: 72 h
[3] = tested on: Calu-3; test: as above; conditions: 72 h
[4] = tested on: HepG2; test: as above; conditions: 72 h
[5] = tested on: U2OS; test: as above; conditions: 72 h
[6] = tested on: Vero E6; test: as above; conditions: 72 h
[7] = tested on: A549-ACE2 infected with SARS-CoV-2; test: SARS-CoV-2 infection rate relative to DMSO; higher = more infection; conditions: 24 h
[8] = tested on: A549-ACE2; test: phospholipidosis EC50; higher = less potent phospholipidosis inducer
[9] = tested on: A549-ACE2; test: drug-induced phospholipidosis relative to tamoxifen; higher = more phospholipidosis
[10] = tested on: A549-ACE2 infected with SARS-CoV-2; test: morphology score (similarity to uninfected cells); higher = more like uninfected cells; conditions: 24 h
[11] = tested on: Caco-2; test: relative viability EC50 (midpoint between 100% and the lowest measured viability); higher = less toxic; conditions: 72 h
[12] = tested on: Calu-3; test: as above; conditions: 72 h
[13] = tested on: U2OS; test: as above; conditions: 72 h
[14] = tested on: Vero E6; test: as above; conditions: 72 h
[15] = tested on: Caco-2; test: drug sensitivity score (DSS) for viability; higher = more toxic; extreme values may be limits of the assay; conditions: 72 h
[16] = tested on: Calu-3; test: as above; conditions: 72 h
[17] = tested on: HepG2; test: as above; conditions: 72 h
[18] = tested on: U2OS; test: as above; conditions: 72 h
[19] = tested on: Vero E6; test: as above; conditions: 72 h
[20] = tested on: HepG2; test: relative viability EC50 (midpoint between 100% and the lowest measured viability); higher = less toxic; conditions: 72 h

CC1(N2CCC(n3c([C@@H]4CCCNC4)nc4ccccc43)CC2)CCCCCCC1 [MCOPPB]
Conditions	SARS-CoV-2 infection rate [%]	cell count [%]	cell viability [%]	morphology score	phospholipidosis EC50 [µM]
[1], 0.3 µM	–	106	–	–	–
[1], 3 µM	–	115	–	–	–
[1], 10 µM	–	119	–	–	–
[1], 30 µM	–	120	–	–	–
[2], 1 nM	–	–	111	–	–
[2], 10 nM	–	–	105	–	–
[2], 100 nM	–	–	93.5	–	–
[2], 1000 nM	–	–	100	–	–
[2], 10000 nM	–	–	89.3	–	–
[3], 1 nM	–	–	99.2	–	–
[3], 10 nM	–	–	99.8	–	–
[3], 100 nM	–	–	91.6	–	–
[3], 1000 nM	–	–	99	–	–
[3], 10000 nM	–	–	7.3	–	–
[4], 1 nM	–	–	94	–	–
[4], 10 nM	–	–	100	–	–
[4], 100 nM	–	–	99.5	–	–
[4], 1000 nM	–	–	87.5	–	–
[4], 10000 nM	–	–	55.1	–	–
[5], 1 nM	–	–	98.6	–	–
[5], 10 nM	–	–	104	–	–
[5], 100 nM	–	–	98.6	–	–
[5], 1000 nM	–	–	100	–	–
[5], 10000 nM	–	–	91.4	–	–
[6], 1 nM	–	–	101	–	–
[6], 10 nM	–	–	101	–	–
[6], 100 nM	–	–	106	–	–
[6], 1000 nM	–	–	99	–	–
[6], 10000 nM	–	–	98.9	–	–
[7], 0.3 µM	89	–	–	–	–
[7], 3 µM	23	–	–	–	–
[7], 10 µM	16	–	–	–	–
[7], 30 µM	27	–	–	–	–
[8], 24 h	–	–	–	–	1.64
[8], 48 h	–	–	–	–	3.3
[8], 72 h	–	–	–	–	4.88
[10], 0.3 µM	–	–	–	0.38	–
[10], 3 µM	–	–	–	0.73	–
[10], 10 µM	–	–	–	0.28	–
[10], 30 µM	–	–	–	-0.07	–

drug-induced phospholipidosis [%], [9]
Conditions	0.3 µM	0.833333 µM	3.33333 µM	6.66667 µM	10 µM	30 µM
24 h	5.09	34	89.2	113	138	112
48 h	5.47	17.9	70.6	117	145	111
72 h	4.22	12.1	45	98.9	137	141

Conditions	drug sensitivity score	relative viability EC50 [µM]
[11]	–	> 10
[12]	–	3.09
[13]	–	> 10
[14]	–	> 10
[15]	0	–
[16]	5.3	–
[17]	4.2	–
[18]	0	–
[19]	0	–

CC(C)(C)c1ccc(-c2nc3ccccc3[nH]2)cc1 [ZLN005]
Conditions	SARS-CoV-2 infection rate, [7] [%]	cell count, [1] [%]	cell viability, [2] [%]	cell viability, [3] [%]	cell viability, [4] [%]	cell viability, [5] [%]	cell viability, [6] [%]	morphology score, [10]
1 nM	–	–	91.8	87.7	94.6	101	92.8	–
10 nM	–	–	99.8	94.1	98.2	94.2	98.6	–
100 nM	–	–	97.1	105	96.2	97.7	94.1	–
0.3 µM	99	98	–	–	–	–	–	0.14
1000 nM	–	–	84	88.1	96.6	90.7	92.7	–
3 µM	87	113	–	–	–	–	–	0.37
10 µM	57	115	–	–	–	–	–	0.7
10000 nM	–	–	49.4	49.4	77.4	78.4	81.6	–
30 µM	32	110	–	–	–	–	–	0.77

drug-induced phospholipidosis [%], [9]
Conditions	0.3 µM	0.833333 µM	3.33333 µM	6.66667 µM	10 µM	30 µM
24 h	3.54	-4.68	-5.18	-7.34	-8.03	-10.2
48 h	4.21	-3.33	-5.71	-7.4	-10.6	-12.3
72 h	2.86	-4.87	-1.84	-5.31	-5.63	-6.24

Conditions	drug sensitivity score	relative viability EC50 [µM]
[11]	–	1.4
[12]	–	1.6
[13]	–	> 10
[14]	–	> 10
[15]	4.9	–
[16]	4.6	–
[17]	1.3	–
[18]	1.3	–
[19]	0.6	–
[20]	–	> 10

COc1cc(/C=C2\CCC/C(=C\c3ccc(O)c(OC)c3)C2=O)ccc1O [cyclovalone]
Conditions	SARS-CoV-2 infection rate, [7] [%]	cell count, [1] [%]	cell viability, [2] [%]	cell viability, [3] [%]	cell viability, [4] [%]	cell viability, [5] [%]	cell viability, [6] [%]	morphology score, [10]
1 nM	–	–	93	93	88.9	96.1	103	–
10 nM	–	–	102	100	95.2	101	91.9	–
100 nM	–	–	100	105	99	97	99.1	–
0.3 µM	96	99	–	–	–	–	–	0.08
1000 nM	–	–	96.1	98.9	92.8	-0.3	84.1	–
3 µM	103	97	–	–	–	–	–	0.06
10 µM	98	80	–	–	–	–	–	0.05
10000 nM	–	–	101	59.3	90.4	22.4	108	–
30 µM	21	31	–	–	–	–	–	0.46

drug-induced phospholipidosis [%], [9]
Conditions	0.3 µM	0.833333 µM	3.33333 µM	6.66667 µM	10 µM	30 µM
24 h	3.68	3.84	17.9	21.4	23.9	23.4
48 h	2.15	1.38	12.4	–	–	–
72 h	2.61	-0.476	7.23	–	–	–

Conditions	drug sensitivity score	relative viability EC50 [µM]
[11]	–	> 10
[13]	–	0.293
[14]	–	> 10
[15]	0	–
[16]	2.2	–
[17]	0	–
[18]	18.4	–
[19]	0	–
[20]	–	> 10

CNS(=O)(=O)Cc1ccc2[nH]cc(CCN(C)C)c2c1 [sumatriptan]
cell viability [%]
Conditions	[2]	[3]	[4]	[5]	[6]
1 nM	91.4	101	81.4	98.1	91.6
10 nM	96.7	95.7	106	95.2	94.4
100 nM	104	93.6	89.1	97.8	87.9
1000 nM	106	100	101	96.2	94.7
10000 nM	96.2	94.4	99.5	97.7	103

Conditions	drug sensitivity score	relative viability EC50 [µM]
[11]	–	> 10
[12]	–	> 10
[13]	–	> 10
[14]	–	> 10
[15]	0	–
[16]	0	–
[17]	0	–
[18]	0	–
[19]	0	–
[20]	–	> 10
